The results in this text go back to patent US9216991B2 (Ares Trading S.A., priority 2012, dated 2015).

Where a name gives a salt, the structure may show the parent alone. A value given as a limit tells only on which side of the number the result lay.

This assay has as its target T1, IRAK4 (Homo sapiens, UniProt Q9NWZ3).
T1 construct: His (N); TEV cleavage site (N)
T1 sequence (Q9NWZ3 1-460): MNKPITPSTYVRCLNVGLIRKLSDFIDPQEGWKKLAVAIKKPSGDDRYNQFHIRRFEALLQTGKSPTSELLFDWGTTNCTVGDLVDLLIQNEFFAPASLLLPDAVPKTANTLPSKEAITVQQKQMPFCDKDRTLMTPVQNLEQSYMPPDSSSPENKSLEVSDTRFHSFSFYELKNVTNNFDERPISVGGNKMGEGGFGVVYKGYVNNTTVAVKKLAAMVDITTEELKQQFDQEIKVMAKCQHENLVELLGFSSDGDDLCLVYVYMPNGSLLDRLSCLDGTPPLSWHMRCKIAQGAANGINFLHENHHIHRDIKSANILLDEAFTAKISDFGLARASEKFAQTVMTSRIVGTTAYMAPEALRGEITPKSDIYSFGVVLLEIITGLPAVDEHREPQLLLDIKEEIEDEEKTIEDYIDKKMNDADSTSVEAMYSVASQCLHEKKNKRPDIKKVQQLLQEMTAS
Nature of the assay: IRAK4 Enzymatic Assay. The class given is biochemical. The settings on record: His-TEV-IRAK4 20 ng/well, ATP 2 μM, STK1-biotin peptide 300 nM, 3 hours at 30° C., FlashPlate radioactivity. The procedure, abridged: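 Recombinant His-TEV-tagged IRAK4 (20 ng/well) phosphorylates biotinylated STK1 peptide (300 nM) with 2 μM ATP plus [^33P]ATP, 3 h at 30 °C in pH 7.0 HEPES buffer with MgCl2 and MnCl2; compounds tested 20 μM to 1 nM. Reaction stopped with EDTA; incorporated radioactivity counted on streptavidin FlashPlates.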
By IC50 is commonly meant the concentration that inhibits the measured activity by half. As for `COCCCn1cc(-c2cnc(-c3cccc(-c4cnn(C)c4)c3)nc2)cn1` [Example 27, 5-[1-(3-Methoxy-propyl)-1H-pyrazol-4-yl]-2-[3-(1-methyl-1H-pyrazol-4-yl)-phenyl]-pyrimidine], the IC50 fell in the range of 100 to 1000 nM.

In the case of `NCCn1cc(-c2cccc(-c3ncc(-c4cnn(CC(=O)N5CCCC5)c4)cn3)c2)cn1` [Example 50, 2-[4-(2-{3-[1-(2-Amino-ethyl)-1H-pyrazol-4-yl]-phenyl}-pyrimidin-5-yl)-pyrazol-1-yl]-1-pyrrolidin-1-yl-ethanone hydrochloride], the IC50 is 1000 to 5000 nM.

In the case of `Cn1cc(-c2cccc(-c3ncc(-c4cnn(C5CCOCC5CN5CCOCC5)c4)cn3)c2)cn1` (stereo not drawn) [Example 271, 4-[4-(4-{2-[3-(1-Methyl-1H-pyrazol-4-yl)-phenyl]-pyrimidin-5-yl}-pyrazol-1-yl)-tetrahydro-pyran-3-ylmethyl]-morpholine], the IC50 lay within 1000 to 5000 nM.

For `Cc1nn(C2CCC(O)CC2)cc1-c1cnc(-c2cccc(-c3cnn(C)c3)c2)nc1` (stereo not drawn) [Example 291, 4-(3-Methyl-4-{2-[3-(1-methyl-1H-pyrazol-4-yl)-phenyl]-pyrimidin-5-yl}-pyrazol-1-yl)-cyclohexanol], the IC50 was 100 to 1000 nM.

Consider `CN1CC2CC1CN2C(=O)[C@H]1CC[C@H](n2cc(-c3cnc(-c4cccc(-c5cnn(C)c5)c4)nc3)cn2)CC1` (stereo partly drawn) [Example 278, (5-Methyl-2,5-diaza-bicyclo[2.2.1]hept-2-yl)-trans-[4-(-4-{2-[3-(1-methyl-1H-pyrazol-4-yl)-phenyl]-pyrimidin-5-yl}-pyrazol-1-yl)-cyclohexyl]-methanone hydrobromide], for which the concentration for half-maximal inhibition (IC50) was below 100 nM.

With `Cc1cc(-c2cccc(-c3ncc(-c4cnn([C@@H]5CCCS(=O)(=O)C5)c4)cn3)c2)cnn1` (single isomer, unassigned) [Example 241], the concentration for half-maximal inhibition (IC50) was 100 to 1000 nM.

As for `Cn1cc(-c2cccc(-c3ncc(-c4cnn(CC(=O)O)c4)cn3)c2)cn1` [Example 8], the IC50 lay within 1000 to 5000 nM.

For `Cn1cc(-c2cccc(-c3ncc(-c4cn(C5CCOCC5)nc4C(=O)N4CC(O)C4)cn3)c2)cn1` [Example 153, (3-Hydroxy-azetidin-1-yl)-[4-{2-[3-(1-methyl-1H-pyrazol-4-yl)-phenyl]-pyrimidin-5-yl}-1-(tetrahydro-pyran-4-yl)-1H-pyrazol-3-yl]-methanone], the half-inhibitory concentration (IC50) was in the range of 1000 to 5000 nM.

As to `C[C@@H]1C[C@H](n2cc(-c3cnc(-c4cccc(-c5cnn(C)c5)c4)nc3)cn2)CCN1` [Example 243, 5-[1-((2R,4R)-2-Methyl-piperidin-4-yl)-1H-pyrazol-4-yl]-2-[3-(1-methyl-1H-pyrazol-4-yl)-phenyl]-pyrimidine formic acid], the IC50 fell in the range of 100 to 1000 nM.

As to `Cn1cc(-c2cccc(-c3ncc(-c4cnn(C5CCOC5)c4)cn3)c2)cn1` (stereo not drawn) [Example 12, 2-[3-(1-Methyl-1H-pyrazol-4-yl)-phenyl]-5-[1-(tetrahydro-furan-3-yl)-1H-pyrazol-4-yl]-pyrimidine], the IC50 lay within 100 to 1000 nM.

`Cn1cc(-c2cccc(-c3ncc(-c4cnn([C@H]5CC[C@@H](N)CC5)c4)cn3)c2)cn1` [Example 156, 4-(4-{2-[3-(1-Methyl-1H-pyrazol-4-yl)-phenyl]-pyrimidin-5-yl}-pyrazol-1-yl)-cyclohexylamine]: the IC50 fell in the range of 100 to 1000 nM.

On to `CN(C)C(=O)C1CCC(n2cc(-c3cnc(-c4cccc(-c5cnn(C)c5)c4)nc3)cn2)CC1` (mixture of isomers) [Example 121, 4-(4-{2-[3-(1-Methyl-1H-pyrazol-4-yl)-phenyl]-pyrimidin-5-yl}-pyrazol-1-yl)-cyclohexanecarboxylic acid dimethylamide], for which the IC50 is below 100 nM.

On to `CC(=O)N1CCC[C@@H](n2cc(-c3cnc(-c4cccc(-c5cnn(C)c5)c4)nc3)cn2)C1` [Example 269, 1-[3-((R)-4-{2-[3-(1-Methyl-1H-pyrazol-4-yl)-phenyl]-pyrimidin-5-yl}-pyrazol-1-yl)-piperidin-1-yl]-ethanone], for which the IC50 is below 100 nM.

Take `Cn1cc(-c2cccc(-c3ncc(-c4cnn(CCN5CCOCC5)c4)cn3)c2)cn1` [Example 10, 4-[2-(4-{2-[3-(1-Methyl-1H-pyrazol-4-yl)-phenyl]-pyrimidin-5-yl}-pyrazol-1-yl)-ethyl]-morpholine]: the IC50 was 100 to 1000 nM.

With `CCN(C)C(=O)[C@H]1CC[C@H](n2cc(-c3cnc(-c4cccc(-c5cnn(C)c5)c4)nc3)cn2)CC1` [Example 204, 4-(4-{2-[3-(1-Methyl-1H-pyrazol-4-yl)-phenyl]-pyrimidin-5-yl}-pyrazol-1-yl)-cyclohexanecarboxylic acid ethyl-methyl-amide], the concentration for half-maximal inhibition (IC50) was below 100 nM.

As to `Cn1cc(-c2cccc(-c3ncc(-c4cnn([C@H]5CC[C@H](C(=O)N6C[C@H](O)[C@@H](O)C6)CC5)c4)cn3)c2)cn1` [Example 244, ((3S,4S)-3,4-Dihydroxy-pyrrolidin-1-yl)-[4-(4-{2-[3-(1-methyl-1H-pyrazol-4-yl)-phenyl]-pyrimidin-5-yl}-pyrazol-1-yl)-cyclohexyl]-methanone], the IC50 is below 100 nM.

Turning to `CCC(O)CNC(=O)[C@H]1CC[C@H](n2cc(-c3cnc(-c4cccc(-c5cnn(C)c5)c4)nc3)cn2)CC1` (stereo partly drawn) [Example 203, trans-4-(4-{2-[3-(1-Methyl-1H-pyrazol-4-yl)-phenyl]-pyrimidin-5-yl}-pyrazol-1-yl)-cyclohexanecarboxylic acid (2-hydroxy-butyl)-amide], the IC50 is below 100 nM.

Consider `Cc1cc(-c2cccc(-c3ncc(-c4cnn([C@H]5CC[C@H](O)CC5)c4)cn3)c2)cnn1` [Example 247, trans-4-(4-{2-[3-(6-Methyl-pyridazin-4-yl)-phenyl]-pyrimidin-5-yl}-pyrazol-1-yl)-cyclohexanol], for which the half-maximal inhibitory concentration (IC50) fell in the range of 100 to 1000 nM.

Turning to `Cn1cc(-c2cccc(-c3ncc(-c4cnn(C5CCCNCC5)c4)cn3)c2)cn1` (stereo not drawn) [Example 172, 4-(4-{2-[3-(1-Methyl-1H-pyrazol-4-yl)-phenyl]-pyrimidin-5-yl}-pyrazol-1-yl)-azepane], the IC50 was below 100 nM.

Regarding `CO[C@H]1CCN(C(=O)[C@H]2CC[C@H](n3cc(-c4cnc(-c5cccc(-c6cnn(C)c6)c5)nc4)cn3)CC2)C1` [Example 191, Trans-((S)-3-Methoxy-pyrrolidin-1-yl)-[4-(4-{2-[3-(1-methyl-1H-pyrazol-4-yl)-phenyl]-pyrimidin-5-yl}-pyrazol-1-yl)-cyclohexyl]-methanone], the IC50 is below 100 nM.

Take `CO[C@H]1CN(C(=O)[C@H]2CC[C@H](n3cc(-c4cnc(-c5cccc(-c6cnn(C)c6)c5)nc4)cn3)CC2)C[C@@H]1O` (relative stereo) [Example 245, (Trans-3-Hydroxy-4-methoxy-pyrrolidin-1-yl)-[4-Trans-(4-{2-[3-(1-methyl-1H-pyrazol-4-yl)-phenyl]-pyrimidin-5-yl}-pyrazol-1-yl)-cyclohexyl]-methanone]: the IC50 is below 100 nM.

As for `Cn1cc(-c2cc(F)cc(-c3ncc(-c4cnn(C5CCNCC5)c4)cn3)c2)cn1` [Example 24, 2-[3-Fluoro-5-(1-methyl-1H-pyrazol-4-yl)-phenyl]-5-(1-piperidin-4-yl-1H-pyrazol-4-yl)-pyrimidine hydrochloride], the IC50 is 100 to 1000 nM.

For `COC1CN(C(=O)Cn2cc(-c3cnc(-c4cccc(-c5cnn(C)c5)c4)nc3)cn2)C1` [Example 40, 1-(3-Methoxy-azetidin-1-yl)-2-(4-{2-[3-(1-methyl-1H-pyrazol-4-yl)-phenyl]-pyrimidin-5-yl}-pyrazol-1-yl)-ethanone], the IC50 was in the range of 100 to 1000 nM.

As for `Cn1cc(-c2cccc(-c3ncc(-c4cnn(CC(=O)N5CCCOCC5)c4)cn3)c2)cn1` [Example 93, 2-(4-{2-[3-(1-Methyl-1H-pyrazol-4-yl)-phenyl]-pyrimidin-5-yl}-pyrazol-1-yl)-1-[1,4]oxazepan-4-yl-ethanone], the IC50 lay in the range of 100 to 1000 nM.

As for `COCC(C)NC(=O)Cn1cc(-c2cnc(-c3cccc(-c4cnn(C)c4)c3)nc2)cn1` (stereo not drawn) [Example 63], the IC50 was 100 to 1000 nM.

Take `CC(=O)N1CC[C@@H](n2cc(-c3cnc(-c4cccc(-c5cnn(C)c5)c4)nc3)cn2)[C@H](O)C1` (single isomer, unassigned) [Example 226]: the IC50 was 100 to 1000 nM.

Regarding `Cn1cc(-c2cccc(-c3ncc(-c4cnn([C@H]5CC[C@H](O)CC5)c4)cn3)c2)cn1` [Example 182, Trans-4-(4-{2-[3-(1-Methyl-1H-pyrazol-4-yl)-phenyl]-pyrimidin-5-yl}-pyrazol-1-yl)-cyclohexanol], the IC50 was below 100 nM.

Regarding `Cn1cc(-c2cccc(-c3ncc(-c4cnn(C[C@H]5CCCN5)c4)cn3)c2)cn1` [Example 71, 2-[3-(1-Methyl-1H-pyrazol-4-yl)-phenyl]-5-(1-(R)-1-pyrrolidin-2-ylmethyl-1H-pyrazol-4-yl)-pyrimidine hydrochloride], the IC50 was in the range of 1000 to 5000 nM.

Consider `Cn1cc(-c2cccc(-c3ncc(-c4cnn(C5CCN(C(=O)C6CC(=O)C6)CC5)c4)cn3)c2)cn1` [Example 117, 3-[4-(4-{2-[3-(1-Methyl-1H-pyrazol-4-yl)-phenyl]-pyrimidin-5-yl}-pyrazol-1-yl)-piperidine-1-carbonyl]-cyclobutanone], for which the IC50 was 100 to 1000 nM.

For `Cn1cncc1-c1cccc(-c2ncc(-c3cnn(CC(=O)N4CCCC4)c3)cn2)c1` [Example 37, 2-(4-{2-[3-(3-Methyl-3H-imidazol-4-yl)-phenyl]-pyrimidin-5-yl}-pyrazol-1-yl)-1-pyrrolidin-1-yl-ethanone], the IC50 is 1000 to 5000 nM.
